# Reference: US4611056A, “Benzo[A]phenothiazines and hydro-derivatives” (Merck Frosst Canada, Inc., priority 1985, dated 1986)
# Where a name gives a salt, the structure may show the parent alone.
# Columns and labels:
# asthmatic rat = experiment: certain biological tests, amorphous versus crystalline material; format: in vivo
# From the text: Representative results comparing the two forms of the compound are shown in the accompanying Table IV (where doses are in mg/kg, p.o.).
# [1] = tested on: duration of dyspnoea in asthmatic rats (egg albumin challenge); experiment: Asthmatic Rat Assay; format: in vivo; conditions: for ED50 (Asthmatic Rat Assay): p.o.
# [2] = NMR study of equilibration of conformational isomers in solution; format: physicochemical; conditions: upon dissolution at room temperature (DMF-d7)
# Experimental: In particular, the methyl group of the acetyl unit appears as four sharp singlets, of approximately equal intensity, at 1.89, 1.91, 1.99 and 2.28 parts per million (ppm).
# In another experiment, a sample of the crystalline compound was dissolved in DMF-d7, pre-cooled to -50° C., and the NMR spectrum taken quickly at -50° C. […] As the sample was warmed, these two signals coalesced to a singlet at about 30° C. (1.91 ppm); at about 80° C., a second singlet appeared (2.04 ppm), and at 170° C., these two singlets began to coalesce.
# In another NMR study of the compound, five samples were dissolved in DMF-d7 at 25° C., and then stored at -78° C., after being held for 0, 5, 15, 30 and 60 minutes at 25° C.
# As a result of the x-ray and NMR studies, it is concluded that there is a single conformational isomer of compound XVIII present in the crystalline form, and that this isomer equilibrated, upon dissolution at room temperature, over a period of approximately one hour, to a mixture of at least four observable conformational isomers which may possibly be represented as follows: [drawing 50]
# [3] = tested on: LTB4 formation in rat peritoneal PMN leukocytes; experiment: Rat Peritoneal Polymorphonuclear (PMN) Leukocyte Assay (inhibition of LTB4 formation); format: cell-based; conditions: for IC50: Leukocyte, rat peritoneal PMN, 10 μM A-23187, 2 min preincubation at 37° C.
# Experimental: Rats under ether anesthesia are injected (i.p.) with 8 ml of a suspension of sodium cascinate (6 grams in ca. 50 ml water). […] The rats are sacrificed (CO2) and the cells from the peritoneal cavity are recovered by lavage with 20 ml of buffer (Eagles MEM containing 30 mM HEPES adjusted to pH 7.4 with NaOH). The cells are pelleted (350×g, 5 min.), resuspended in buffer with vigorous shaking, filtered through lens paper, recentrifuged and finally suspended in buffer at a concentration of 10 cells/ml. A 500 μl aliquot of PMN suspension and test compound are preincubated for 2 minutes at 37° C., followed by the addition of 10 μM A-23187. The suspension is stirred for an additional 4 minutes then bioassayed for LTB4 content by adding an aliquot to a second 500 μl portion of the PMN at 37° C. The LTB4 produced in the first incubation causes aggregation of the second PMN, which is measured as a change in light transmission. […] The percentage inhibition of LTB4 formation is calculated from the ration of transmission change in the sample to the transmission change in the compound-free control.
# [4] = tested on: Platelet activating factor (PAF)-induced hyperalgesia in the rat paw; experiment: PAF-Induced Hyperalgesia Assay; format: in vivo, rat (female Sprague-Dawley)
# Experimental: Female Sprague-Dawley rats, 35-40 g were fasted overnight. Platelet activating factor, PAF, (L-lecithin B-acetyl O-alkyl) 1 μg/0.1 ml was given by subplantar injection in the rat paw. The compounds to be evaluated were homogenized in Aqueous Vehicle (0.9% benzyl alcohol, 0.5% Tween 80 and 0.4% methylcellulose) and administered orally in a volume of 0.1 ml, 30 minutes prior to PAF.
# Animals were tested 1, 2, 3 and 4 hours after PAF administration. The vocalization threshold, defined as the pressure (mmHg) needed to evoke a squeak response, was recorded for both the injected and contralateral paw. No animal was subjected to pressure greater than 60 mmHg. Hyperalgesia is defined as a decrease in vocalization threshold as compared to a normal paw. Percent inhibition of hyperalgesia was calculated as the proportion of animals with vocalization thresholds greater than 200% of controls.
# [5] = 0.5 mg/kg p.o., vehicle 0.4% Tween 80/0.5% Methocel
# [6] = 1.5 mg/kg p.o., vehicle 0.4% Tween 80/0.5% Methocel
# [7] = 2 mg/kg p.o., vehicle 0.4% Tween 80/0.5% Methocel
# [8] = vehicle 0.4% Tween 80/0.5% Methocel
# [9] = Rattus norvegicus, po, 5 mg/kg p.o., Table III, read-out: Asth. Rat % Inhibition
# [10] = Rattus norvegicus, po, 1.5 mg/kg p.o., Table III, read-out: Asth. Rat % Inhibition
smiles,measurement,setting,value
"CC(=O)OC(C)OC(=O)N1c2ccccc2Sc2cc(O)c3ccccc3c21 (centres unmarked) [Compound XVIII, Amorphous (4 Conformers), 5-hydroxy-12-(1-acetoxyethoxycarbonyl)-12H-benzo[a]phenothiazine]",biological activity over the crystalline material,asthmatic rat,advantageous biological activity over the crystalline material
same,% Inhibition (Asthmatic Rat Assay),[1]; [5],48%
same,% Inhibition (Asthmatic Rat Assay),"[1]; 0.5 mg/kg p.o., vehicle 1% Methocel",36%
same,% Inhibition (Asthmatic Rat Assay),[1]; [6],52%
same,% Inhibition (Asthmatic Rat Assay),"[1]; 1.5 mg/kg p.o., vehicle 1% Methocel",59%
same,% Inhibition (Asthmatic Rat Assay),[1]; [7],57%
same,ED50 (Asthmatic Rat Assay),[1]; [8],1.0 mg/kg
same,ED50 (Asthmatic Rat Assay),[1]; vehicle 1% Methocel,1.0 mg/kg
"CC(=O)OC(C)OC(=O)N1c2ccccc2Sc2cc(O)c3ccccc3c21 (centres unmarked) [Compound XVIII, Crystalline (1 Conformer)] [5-hydroxy-12-(1-acetoxyethoxycarbonyl)-12H-benzo[a]phenothiazine]",period of equilibration of the single conformational isomer to a mixture of at least four conformational isomers,[2],approximately one hour
same,% Inhibition (Asthmatic Rat Assay),[1]; [5],19%
same,% Inhibition (Asthmatic Rat Assay),[1]; [6],49%
same,% Inhibition (Asthmatic Rat Assay),[1]; [7],61%
same,% Inhibition (Asthmatic Rat Assay),"[1]; 2 mg/kg p.o., vehicle 1% Methocel",28%
same,% Inhibition (Asthmatic Rat Assay),"[1]; 5 mg/kg p.o., vehicle 0.4% Tween 80/0.5% Methocel",81%
same,ED50 (Asthmatic Rat Assay),[1]; [8],1.5 mg/kg
"CC(=O)Oc1cc2c(c3ccccc13)N(C(C)=O)c1ccccc1S2 [aromatic, Ac, Ac, S, 5-Acetoxy-12-acetyl-12H-benzo[a]phenothiazine]",inhibition in vivo at 5 mg/kg,[1]; [9],47%
"CC(=O)N1c2ccccc2Sc2cc(O)c3ccccc3c21 [aromatic, Ac, H, S, 12-acetyl-5-hydroxy-12H-benzo[a]phenothiazine]",IC50,[3],1000 to 5000 µg/mL
"COc1cc2c(c3ccccc13)N(C(C)=O)c1ccccc1S2 [aromatic, Ac, Me, S, 12-Acetyl-5-methoxy-12H-benzo[a]phenothiazine]",IC50,[3],5000 µg/mL
"CC(=O)Oc1cc2c(c3ccccc13)Nc1ccccc1O2 [aromatic, H, Ac, O, 5-Acetoxy-12H-benzo[a]phenoxazine]",inhibition in vivo at 5 mg/kg,[1]; [9],44%
"CC(=O)Oc1cc2c(c3ccccc13)Nc1ccccc1S2 [aromatic, H, Ac, S, 5-acetoxy-12H-benzo[a]phenothiazine]",IC50,[3],25 to 50 µg/mL
same,ED50,"[1]; Rattus norvegicus, po, Table III, read-out: Asth. Rat ED50",4 mg/kg
same,ED50,"[4]; Rattus norvegicus, Platelet, po",0.145 mg/kg
"CC(=O)Oc1cc2c(c3ccccc13)Nc1ccccc1S2(=O)=O [aromatic, H, Ac, SO2, 5-Acetoxy-12H-benzo[a]phenothiazine-7,7-dioxide]",inhibition in vivo at 5 mg/kg,[1]; [9],42%
"CC(C)(C)C(=O)Oc1cc2c(c3ccccc13)Nc1ccccc1S2 [aromatic, H, COC(CH3)3, S, 5-Trimethylacetoxy-12H-benzo[a]phenothiazine]",inhibition in vivo at 5 mg/kg,[1]; [9],54%
"NCC(=O)Oc1cc2c(c3ccccc13)Nc1ccccc1S2 [aromatic, H, COCH2 NH2 .HCl, S, 5-aminoacetoxy-12H-benzo[a]phenothiazine-hydrochloride salt]",inhibition in vivo at 1.5 mg/kg,[1]; [10],21%
same,inhibition in vivo at 3 mg/kg,"[1]; Rattus norvegicus, po, 3 mg/kg p.o., Table III, read-out: Asth. Rat % Inhibition",44%
"O=C(Oc1cc2c(c3ccccc13)Nc1ccccc1S2)c1ccccc1 [aromatic, H, COPh, S, 5-Benzoyloxy-12H-benzo[a]phenothiazine]",inhibition in vivo at 5 mg/kg,[1]; [9],18%
"Oc1cc2c(c3ccccc13)Nc1ccccc1S2 [aromatic, H, H, S, 5-hydroxy-12H-benzo[a]phenothiazine]",IC50,[3],20 to 100 µg/mL
same,inhibition in vivo at 1.5 mg/kg,[1]; [10],54%
"O=S1(=O)c2ccccc2Nc2c1cc(O)c1ccccc21 [aromatic, H, H, SO2, 5-Hydroxy-12H-benzo[a]phenothiazine-7,7-dioxide]",inhibition in vivo at 5 mg/kg,[1]; [9],67%
"CCOP(=O)(OCC)Oc1cc2c(c3ccccc13)Nc1ccccc1S2 [aromatic, H, PO(OEt)2, S, Diethyl 12H-benzo[a]phenothiazin-5-yl phosphate]",PMN IC50,[3],0.2 to 1 mg/mL
"CC(=O)Oc1cc2c(c3ccccc13)N(C)c1ccccc1S2 [aromatic, Me, Ac, S, 5-acetoxy-12-methyl-12H-benzo[a]phenothiazine]",IC50,[3],50 µg/mL
same,PAF Induced Hyperalgesia % Inhibition,[4]; 1 mg/kg p.o.,30-60%
"COc1cc2c(c3ccccc13)N(C)c1ccccc1S2 [aromatic, Me, Me, S, 5-methoxy-12-methyl-12H-benzo[a]phenothiazine]",IC50,[3],5000 µg/mL
same,PAF Induced Hyperalgesia % Inhibition,[4]; 1 mg/kg p.o.,40%
same,PAF Induced Hyperalgesia % Inhibition,[4]; 3 mg/kg p.o.,80%
"CC(=O)OC(C)OC(=O)N1c2ccccc2Sc2cc(O)c3ccccc3c21 (centres unmarked) [aromatic, drawing 52, H, S, 5-hydroxy-12-(1-acetoxyethoxycarbonyl)-12H-benzo[a]phenothiazine]",inhibition in vivo at 1.5 mg/kg,[1]; [10],49%
same,PAF Induced Hyperalgesia % Inhibition,[4]; 3 mg/kg p.o.,60%
